According to patent US20190218214A1, “Inhibition of BMP Signaling Compounds, Compositions and Uses Thereof” (Vanderbilt University, priority 2016, published 2019):

How the values were obtained:
[1] = test system: BMP4; assay: BMP4 biological assay (Table 3); format: cell-based
[2] = molecular target: ALK1 (Homo sapiens, UniProt P37023); assay: Selectivity Ki, ALK1; format: biochemical
[3] = molecular target: T1, ALK2 (Homo sapiens, UniProt Q04771); assay: Selectivity Ki, ALK2; format: biochemical
T1 sequence (Q04771 21-509): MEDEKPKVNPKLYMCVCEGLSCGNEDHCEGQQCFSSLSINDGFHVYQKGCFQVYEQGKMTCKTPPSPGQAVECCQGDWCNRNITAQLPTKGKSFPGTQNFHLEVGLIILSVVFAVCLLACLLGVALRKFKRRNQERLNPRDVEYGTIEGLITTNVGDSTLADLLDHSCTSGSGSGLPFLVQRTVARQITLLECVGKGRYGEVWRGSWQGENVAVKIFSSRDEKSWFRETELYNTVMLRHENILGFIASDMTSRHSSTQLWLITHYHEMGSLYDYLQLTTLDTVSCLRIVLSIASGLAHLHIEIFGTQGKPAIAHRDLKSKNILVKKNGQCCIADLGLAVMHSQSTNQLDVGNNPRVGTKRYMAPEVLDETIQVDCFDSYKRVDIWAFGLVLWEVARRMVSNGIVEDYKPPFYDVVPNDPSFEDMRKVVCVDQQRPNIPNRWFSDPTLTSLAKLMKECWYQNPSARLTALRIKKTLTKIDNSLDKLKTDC

[4] = molecular target: ALK3 (Homo sapiens, UniProt P36894); assay: Selectivity Ki, ALK3; format: biochemical
ALK3, sequence (P36894 24-532, species assumed): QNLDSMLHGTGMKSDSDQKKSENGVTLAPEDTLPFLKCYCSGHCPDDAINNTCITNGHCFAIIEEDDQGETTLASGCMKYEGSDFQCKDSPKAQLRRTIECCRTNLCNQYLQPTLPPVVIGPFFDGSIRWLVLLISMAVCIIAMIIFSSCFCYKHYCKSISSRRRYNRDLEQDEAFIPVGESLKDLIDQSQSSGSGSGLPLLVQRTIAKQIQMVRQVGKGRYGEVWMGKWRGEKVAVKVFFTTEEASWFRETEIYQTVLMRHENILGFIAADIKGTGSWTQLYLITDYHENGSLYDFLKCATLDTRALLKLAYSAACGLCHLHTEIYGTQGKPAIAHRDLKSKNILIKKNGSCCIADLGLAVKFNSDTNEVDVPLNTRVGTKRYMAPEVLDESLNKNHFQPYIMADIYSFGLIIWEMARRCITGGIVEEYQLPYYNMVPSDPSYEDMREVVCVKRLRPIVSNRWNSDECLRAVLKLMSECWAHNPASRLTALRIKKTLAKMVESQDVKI

[5] = In vitro DMPK intrinsic clearance, human; format: in vitro ADME
[6] = In vitro DMPK intrinsic clearance, rat; format: in vitro ADME
[7] = Plasma protein binding, human; format: in vitro ADME; conditions: read-out: Plasma protein binding (% Fu) Human
[8] = Plasma protein binding, mouse; format: in vitro ADME; conditions: read-out: Plasma protein binding (% Fu) Mouse
[9] = Plasma protein binding, rat; format: in vitro ADME; conditions: read-out: Plasma protein binding (% Fu) Rat
[10] = molecular target: T2, ALK4 (Homo sapiens, UniProt P36896); assay: Selectivity Ki, ALK4; format: biochemical
T2 sequence (P36896 24-505): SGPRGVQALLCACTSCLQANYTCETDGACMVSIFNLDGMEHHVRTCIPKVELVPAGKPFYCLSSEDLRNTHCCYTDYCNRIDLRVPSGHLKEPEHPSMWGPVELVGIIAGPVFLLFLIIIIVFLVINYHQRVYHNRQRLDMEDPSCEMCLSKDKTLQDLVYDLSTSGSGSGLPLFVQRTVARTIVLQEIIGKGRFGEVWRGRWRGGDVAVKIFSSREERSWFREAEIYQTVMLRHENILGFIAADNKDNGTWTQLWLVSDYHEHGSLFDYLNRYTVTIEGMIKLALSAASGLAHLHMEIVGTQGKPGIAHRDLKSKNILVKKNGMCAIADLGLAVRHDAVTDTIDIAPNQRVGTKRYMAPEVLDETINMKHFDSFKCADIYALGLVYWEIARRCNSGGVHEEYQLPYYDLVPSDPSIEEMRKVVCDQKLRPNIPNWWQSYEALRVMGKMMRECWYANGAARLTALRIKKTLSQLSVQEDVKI

[11] = molecular target: T3, ALK5 (Homo sapiens, UniProt P36897); assay: Selectivity Ki, ALK5; format: biochemical
T3 sequence (P36897 34-503): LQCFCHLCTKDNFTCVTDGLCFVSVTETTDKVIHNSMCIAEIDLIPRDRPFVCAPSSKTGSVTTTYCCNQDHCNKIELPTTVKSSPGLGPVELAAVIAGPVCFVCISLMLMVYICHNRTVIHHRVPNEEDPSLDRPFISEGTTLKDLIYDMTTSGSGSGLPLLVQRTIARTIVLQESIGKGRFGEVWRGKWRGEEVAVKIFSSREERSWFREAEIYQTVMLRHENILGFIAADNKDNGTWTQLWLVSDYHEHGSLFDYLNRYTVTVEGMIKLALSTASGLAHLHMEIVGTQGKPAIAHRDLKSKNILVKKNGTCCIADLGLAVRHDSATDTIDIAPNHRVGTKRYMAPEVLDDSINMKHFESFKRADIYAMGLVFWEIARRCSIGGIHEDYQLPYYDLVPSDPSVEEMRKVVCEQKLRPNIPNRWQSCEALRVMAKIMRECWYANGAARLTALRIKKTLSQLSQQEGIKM

[12] = molecular target: ALK6 (Homo sapiens, UniProt O00238); assay: Selectivity Ki, ALK6; format: biochemical
ALK6, sequence (O00238 14-502): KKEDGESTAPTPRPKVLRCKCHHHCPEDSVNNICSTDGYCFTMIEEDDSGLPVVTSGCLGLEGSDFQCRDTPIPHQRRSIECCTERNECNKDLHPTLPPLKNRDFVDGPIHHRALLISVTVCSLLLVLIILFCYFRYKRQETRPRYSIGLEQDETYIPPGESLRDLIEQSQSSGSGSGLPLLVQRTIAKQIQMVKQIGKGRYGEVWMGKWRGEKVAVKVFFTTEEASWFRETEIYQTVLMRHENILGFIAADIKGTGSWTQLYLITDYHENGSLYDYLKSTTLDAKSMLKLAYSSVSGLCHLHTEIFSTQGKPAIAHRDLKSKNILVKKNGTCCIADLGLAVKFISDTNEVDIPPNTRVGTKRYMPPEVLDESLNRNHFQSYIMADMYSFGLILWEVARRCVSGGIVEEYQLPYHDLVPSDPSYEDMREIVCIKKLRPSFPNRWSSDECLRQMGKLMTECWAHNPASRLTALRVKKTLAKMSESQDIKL

[13] = molecular target: T4, BMPR2 (Homo sapiens, UniProt Q13873); assay: Selectivity Ki, BMPR2; format: biochemical
T4 sequence (Q13873 27-1038): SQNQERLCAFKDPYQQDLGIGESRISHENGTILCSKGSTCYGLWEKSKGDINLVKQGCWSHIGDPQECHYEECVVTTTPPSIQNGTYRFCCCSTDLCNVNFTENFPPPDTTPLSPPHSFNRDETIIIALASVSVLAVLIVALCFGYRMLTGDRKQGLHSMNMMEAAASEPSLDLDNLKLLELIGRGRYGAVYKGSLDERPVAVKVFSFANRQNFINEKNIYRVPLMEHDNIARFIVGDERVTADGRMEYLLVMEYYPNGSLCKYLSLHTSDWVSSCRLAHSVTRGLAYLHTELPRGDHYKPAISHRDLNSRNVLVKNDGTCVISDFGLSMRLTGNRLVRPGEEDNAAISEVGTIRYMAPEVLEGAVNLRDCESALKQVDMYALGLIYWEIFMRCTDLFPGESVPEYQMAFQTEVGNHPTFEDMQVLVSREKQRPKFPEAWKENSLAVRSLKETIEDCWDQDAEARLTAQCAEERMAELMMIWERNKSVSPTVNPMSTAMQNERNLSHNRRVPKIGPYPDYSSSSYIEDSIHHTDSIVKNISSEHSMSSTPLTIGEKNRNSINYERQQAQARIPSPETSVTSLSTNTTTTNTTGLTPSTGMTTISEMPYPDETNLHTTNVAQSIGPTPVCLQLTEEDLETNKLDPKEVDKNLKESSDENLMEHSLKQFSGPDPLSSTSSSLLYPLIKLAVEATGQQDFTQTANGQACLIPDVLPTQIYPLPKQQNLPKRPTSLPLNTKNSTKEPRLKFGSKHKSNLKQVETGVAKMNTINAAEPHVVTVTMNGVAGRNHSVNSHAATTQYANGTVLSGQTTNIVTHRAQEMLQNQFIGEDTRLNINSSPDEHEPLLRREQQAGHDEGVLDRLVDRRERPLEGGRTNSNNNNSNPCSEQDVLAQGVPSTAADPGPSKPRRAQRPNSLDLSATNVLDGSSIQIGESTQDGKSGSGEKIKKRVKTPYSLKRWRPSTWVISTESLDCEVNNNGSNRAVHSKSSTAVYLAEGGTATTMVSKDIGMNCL

[14] = molecular target: TGFβR2 (Homo sapiens, UniProt P37173); assay: Selectivity Ki, TGFβR2; format: biochemical
TGFβR2, sequence (P37173 23-567): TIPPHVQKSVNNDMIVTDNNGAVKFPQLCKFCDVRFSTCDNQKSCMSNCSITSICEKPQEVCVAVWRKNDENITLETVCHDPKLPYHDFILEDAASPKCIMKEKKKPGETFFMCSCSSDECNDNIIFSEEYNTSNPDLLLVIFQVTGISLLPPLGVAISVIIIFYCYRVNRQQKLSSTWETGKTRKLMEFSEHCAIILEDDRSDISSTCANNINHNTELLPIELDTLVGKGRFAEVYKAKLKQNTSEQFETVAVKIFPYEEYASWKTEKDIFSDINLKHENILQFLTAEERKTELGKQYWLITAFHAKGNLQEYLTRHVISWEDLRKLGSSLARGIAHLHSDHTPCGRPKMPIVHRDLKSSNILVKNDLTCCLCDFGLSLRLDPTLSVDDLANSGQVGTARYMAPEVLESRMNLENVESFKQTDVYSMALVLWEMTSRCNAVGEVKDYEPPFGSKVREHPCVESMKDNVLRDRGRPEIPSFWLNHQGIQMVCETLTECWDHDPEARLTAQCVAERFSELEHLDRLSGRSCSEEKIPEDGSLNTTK

[15] = molecular target: AMPK; assay: Selectivity Ki, AMPK; format: biochemical
[16] = molecular target: KDR (Homo sapiens, UniProt P35968); assay: Selectivity Ki, KDR; format: biochemical
KDR, sequence (P35968 20-1356, species assumed): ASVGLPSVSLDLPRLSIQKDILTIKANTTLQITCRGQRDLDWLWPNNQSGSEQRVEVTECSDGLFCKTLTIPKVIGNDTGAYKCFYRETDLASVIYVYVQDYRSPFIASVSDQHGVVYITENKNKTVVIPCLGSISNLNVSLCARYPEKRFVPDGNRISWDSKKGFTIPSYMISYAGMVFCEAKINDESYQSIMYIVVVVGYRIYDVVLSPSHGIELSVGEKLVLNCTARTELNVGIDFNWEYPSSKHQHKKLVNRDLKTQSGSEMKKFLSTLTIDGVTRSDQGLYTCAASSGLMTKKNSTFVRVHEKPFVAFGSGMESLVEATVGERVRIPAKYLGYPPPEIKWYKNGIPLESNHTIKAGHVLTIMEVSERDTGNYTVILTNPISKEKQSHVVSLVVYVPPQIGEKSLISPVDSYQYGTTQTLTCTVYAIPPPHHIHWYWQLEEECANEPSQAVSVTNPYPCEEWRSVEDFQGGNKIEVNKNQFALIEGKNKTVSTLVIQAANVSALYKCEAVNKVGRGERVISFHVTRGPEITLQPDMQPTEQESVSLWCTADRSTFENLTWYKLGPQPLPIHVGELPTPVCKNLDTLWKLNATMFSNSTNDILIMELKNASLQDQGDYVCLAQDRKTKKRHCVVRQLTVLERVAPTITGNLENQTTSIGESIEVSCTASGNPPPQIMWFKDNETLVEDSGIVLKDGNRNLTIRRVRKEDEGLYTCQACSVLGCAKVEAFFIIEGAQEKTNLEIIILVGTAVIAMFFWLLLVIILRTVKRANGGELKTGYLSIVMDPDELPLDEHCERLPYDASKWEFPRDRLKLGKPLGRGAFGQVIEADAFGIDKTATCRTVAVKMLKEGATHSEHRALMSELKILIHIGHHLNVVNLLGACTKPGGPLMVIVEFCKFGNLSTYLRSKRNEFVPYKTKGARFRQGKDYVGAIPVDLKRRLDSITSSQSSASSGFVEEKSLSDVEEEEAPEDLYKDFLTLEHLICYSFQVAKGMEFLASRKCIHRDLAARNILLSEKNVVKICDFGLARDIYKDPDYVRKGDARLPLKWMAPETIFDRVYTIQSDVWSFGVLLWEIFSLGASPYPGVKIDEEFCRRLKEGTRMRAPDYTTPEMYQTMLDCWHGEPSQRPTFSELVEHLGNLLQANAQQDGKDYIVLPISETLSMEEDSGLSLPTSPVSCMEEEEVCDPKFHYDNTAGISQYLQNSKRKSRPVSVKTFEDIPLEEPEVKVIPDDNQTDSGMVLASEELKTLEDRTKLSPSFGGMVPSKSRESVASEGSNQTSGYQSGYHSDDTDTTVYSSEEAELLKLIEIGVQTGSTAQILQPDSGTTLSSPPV

[17] = In vitro DMPK intrinsic clearance, mouse; format: in vitro ADME
[18] = test system: Hepcidin expression; assay: In vitro model of Hepcidin expression (HAMP/HPRT1, alone and with BMP-6); format: cell-based; conditions: as compared to control (FIGS. 6-9)
[19] = test system: hepcidin expression; assay: IRIDA animal model, liver hepcidin mRNA 2 hours after injection; format: in vivo; conditions: Tmprss6−/− mice, 2 hours after injecting (FIG. 13)
Method: The efficacy of compounds was shown in an IRIDA animal model. Initially, an exemplary dose and time point was determined in wild type mice. Briefly, liver mRNA and proteins were extracted. Hepcidin and Id1 mRNA expression was measured by real-time PCR and Smad 1-5-8 phosphorylation was assayed by Western blot analysis. FIGS. 10A-10D depict the RT-PCR data for various inflammatory markers in the liver. FIGS. 11A and 11B depict the RT-PCR data for Hamp mRNA and Id1 mRNA expression. FIG. 12A-12C depict the results of the Western blot analysis.

[20] = read-out: Intrinsic clearance hCLHEP
[21] = read-out: Intrinsic clearance hCLINT

ALK1, sequence (P37023 22-503, species assumed): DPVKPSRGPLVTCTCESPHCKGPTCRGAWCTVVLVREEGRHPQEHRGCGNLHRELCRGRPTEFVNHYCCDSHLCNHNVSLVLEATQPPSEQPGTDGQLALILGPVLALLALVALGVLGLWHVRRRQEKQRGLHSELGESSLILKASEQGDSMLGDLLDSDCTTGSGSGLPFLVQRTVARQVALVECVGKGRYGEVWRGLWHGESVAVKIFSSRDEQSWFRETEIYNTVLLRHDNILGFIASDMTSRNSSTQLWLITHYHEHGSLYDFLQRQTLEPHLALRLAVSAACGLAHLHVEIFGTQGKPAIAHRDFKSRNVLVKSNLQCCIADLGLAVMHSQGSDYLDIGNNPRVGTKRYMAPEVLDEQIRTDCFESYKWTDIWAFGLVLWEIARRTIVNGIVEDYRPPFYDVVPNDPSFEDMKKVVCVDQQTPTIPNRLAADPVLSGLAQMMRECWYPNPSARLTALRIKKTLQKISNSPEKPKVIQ

Which IC50 [1] does the source give for Cc1cc(-c2cnc3cc(-c4ccc(C5CCN(C(C)C)CC5)cc4)ccn23)c2cc(F)ccc2n1 [Compound 168] here?
The IC50 was 392 nM.

What about the Ki [2] of the same compound?
The Ki was 179 nM.

And the Ki [3]?
Its Ki is 7.2 nM.

And the Ki [4]?
The Ki was 34.6 nM.

What about the CLint scaled [5, 20] of the same compound?
The CLint scaled was 6.1 mL/min/kg.

What about the CLint scaled [5, 21] of the same compound?
Its CLint scaled is 8.6 mL/min/kg.

And the CLint scaled ([6]; read-out: Intrinsic clearance rCLHEP)?
The CLint scaled was 14.5 mL/min/kg.

And the CLint scaled ([6]; read-out: Intrinsic clearance rCLINT)?
The CLint scaled was 18.2 mL/min/kg.

And the fraction unbound [7]?
The fraction unbound was 0.021.

And the fraction unbound [8]?
The fraction unbound was 0.009.

What about the fraction unbound [9] of the same compound?
The fraction unbound was 0.014.

Which IC50 [1] does the source give for COc1ccc2nc(C)cc(-c3cnc4cc(-c5ccc(N6CCN(C(C)=O)CC6)cc5)ccn34)c2c1 [Compound 48] here?
The IC50 was 185 nM.

And the Ki [2]?
Its Ki is 4280 nM.

And the Ki [3]?
The Ki was 338 nM.

And the Ki [4]?
Its Ki is < 5.1 nM.

And the Ki [10]?
The Ki was 144 nM.

And the Ki [11]?
The Ki was 319 nM.

And the Ki [12]?
Its Ki is 965 nM.

And the Ki [13]?
Its Ki is > 30000 nM.

What about the Ki [14] of the same compound?
Its Ki is 196 nM.

And the Ki [15]?
The Ki was 8700 nM.

What about the Ki [16] of the same compound?
The Ki was 8730 nM.

What about the CLint scaled [5, 20] of the same compound?
Its CLint scaled is 19.6 mL/min/kg.

And the CLint scaled [5, 21]?
Its CLint scaled is 294 mL/min/kg.

What about the CLint scaled ([17]; read-out: Intrinsic clearance mCLHEP) of the same compound?
Its CLint scaled is 71.5 mL/min/kg.

And the CLint scaled ([17]; read-out: Intrinsic clearance mCLINT)?
Its CLint scaled is 349 mL/min/kg.

What about the fraction unbound [7] of the same compound?
The fraction unbound was 0.012.

What about the fraction unbound [8] of the same compound?
The fraction unbound was 0.058.

What about the Hepcidin expression [18] of the same compound?
The Hepcidin expression was “reduced Hepcidin expression as compared to control”.

And the “Liver hepcidin mRNA expression” value [19]?
The value was “reduction of hepcidin expression”.
